Results taken from PubChem BioAssay (NCI).
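Following 48 hours of exposure in 96-well plates, responses at five concentrations were used to interpolate endpoints linearly. The concentration for 50% growth inhibition is given as GI50. TGI denotes the concentration required for complete inhibition of growth.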

Tests used:
Assay in all cases: NCI anticancer screen, dose series, 48 h
[1] = tested on: CAKI-1 renal
[2] = tested on: HCT-116 colon
[3] = tested on: RXF 393 renal
[4] = tested on: MDA-MB-435
[5] = tested on: SNB-75 CNS
[6] = tested on: DU-145 prostate
[7] = tested on: U251 CNS
[8] = tested on: HCT-15 colon
[9] = tested on: UACC-62 melanoma
[10] = tested on: SNB-19 CNS
[11] = tested on: A549 NSCLC
[12] = tested on: LOX IMVI melanoma
[13] = tested on: PC-3 prostate
[14] = tested on: HS 578T breast
[15] = tested on: BT-549 breast
[16] = tested on: COLO 205 colon
[17] = tested on: UO-31 renal
[18] = tested on: MALME-3M melanoma
[19] = tested on: CCRF-CEM leukemia
[20] = tested on: HOP-92 NSCLC
[21] = tested on: NCI/ADR-RES ovarian
[22] = tested on: SF-539 CNS
[23] = tested on: NCI-H522 lung
[24] = tested on: K-562 leukemia
[25] = tested on: MDA-MB-231 breast
[26] = tested on: A498 renal
[27] = tested on: SW-620 colon
[28] = tested on: HL-60(TB) leukemia

COc1cc2c(cc1OCCCNC(=O)/C=C1/C[C@H]3C=Nc4cc(OCc5ccccc5)c(OC)cc4C(=O)N3C1)NC(=O)[C@@H]1CCCN1C2=O was tested, and the GI50 [1] was greater than 100 µM, the TGI [1] was greater than 100 µM and the GI50 [2] was 73.7 µM. The TGI [2] was greater than 100 µM, the GI50 [3] was 33.6 µM and the TGI [3] was greater than 100 µM. The GI50 [4] was 44.2 µM, the TGI [4] was greater than 100 µM and the GI50 [5] was 32.7 µM. For the same compound, the TGI [5] was 98.1 µM, the GI50 [6] was 52.1 µM and the TGI [6] was greater than 100 µM. The GI50 [7] was 33.3 µM, the TGI [7] was greater than 100 µM and the GI50 [8] was greater than 100 µM. For the same compound, the TGI [8] was greater than 100 µM, the GI50 [9] was 55.2 µM and the TGI [9] was greater than 100 µM. For the same compound, the GI50 [10] was 43.3 µM, the TGI [10] was greater than 100 µM and the GI50 [11] was greater than 100 µM. The TGI [11] was greater than 100 µM, the GI50 [12] was 43.3 µM and the TGI [12] was greater than 100 µM. It also gave a GI50 [13] of 77.3 µM, a TGI [13] greater than 100 µM and a GI50 [14] of 34.4 µM. For the same compound, the TGI [14] was greater than 100 µM, the GI50 [15] was 23.9 µM and the TGI [15] was 53.5 µM. For the same compound, the GI50 [16] was 54.6 µM, the TGI [16] was greater than 100 µM and the GI50 [17] was greater than 100 µM. For the same compound, the TGI [17] was greater than 100 µM, the GI50 [18] was greater than 100 µM and the TGI [18] was greater than 100 µM. For the same compound, the GI50 [19] was 40.8 µM, the TGI [19] was greater than 100 µM and the GI50 [20] was 47.2 µM. For the same compound, the TGI [20] was greater than 100 µM, the GI50 [21] was greater than 100 µM and the TGI [21] was greater than 100 µM. The GI50 [22] was 32.4 µM, the TGI [22] was 85.5 µM and the GI50 [23] was 31.3 µM. It also gave a TGI [23] greater than 100 µM, a GI50 [24] of 82.8 µM and a TGI [24] greater than 100 µM. For the same compound, the GI50 [25] was 50.9 µM, the TGI [25] was greater than 100 µM and the GI50 [26] was 58.9 µM. It also gave a TGI [26] greater than 100 µM, a GI50 [27] of 33.3 µM and a TGI [27] greater than 100 µM. It also gave a GI50 [28] of 51.9 µM and a TGI [28] greater than 100 µM.
